Measurements published in US11655459B2, “Methods for reprogramming somatic cells” (Whitehead Institute for Biomedical Research, priority 2003, dated 2023).
Values joined by “and” are separate entries in the source; they are usually repeats but may differ in a detail not shown here. Equal entries are not always repeated.

System: fibroblasts derived from tail biopsies of mice that carry the inducible Oct4 transgene
Assay: Nuclear transfer experiment: in vitro development of clones derived from Oct4-induced fibroblasts
Assay type: cell-based, mouse
Procedure: Nuclear transfer was performed on fibroblasts derived from tail biopsies of mice that carry the inducible Oct4 transgene. Dox induction was for 24 hours prior to nuclear transfer. Cloned embryos were then activated and cultured to the blastocyst stage to derive ES cells as described previously (Hochedlinger and Jaenisch, 2002). […] [table]

[1] = Dox induction 24 hours prior to nuclear transfer, fraction of eggs with pronucleus formation, single experiment, listed as Dox
[2] = Oct4 induced, Expt. #3 and #4 together

C[C@H]1c2cccc(O)c2C(=O)C2=C(O)[C@]3(O)C(=O)C(C(N)=O)=C(O)[C@@H](N(C)C)[C@@H]3[C@@H](O)[C@@H]21 [doxycycline]
Blastocysts (% PN) [1]: 27% and 21%
ES lines (% PN) [1]: 5% and 9%
Blastocysts (number) (Dox induction 24 hours prior to nuclear transfer, single experiment): 10
ES lines (number) (Dox induction 24 hours prior to nuclear transfer, single experiment, listed as Dox): 2 and 4
Blastocysts (% PN), average of experiments [2]: 24%
ES lines (% PN), average of experiments [2]: 7%
